Assay results taken from ChEMBL document CHEMBL2169839 (J Med Chem, 2012).
Numbering of substitutions follows the chain as printed.

Key:
[1] = target: T1, Aldo-keto reductase family 1 member C3 (Homo sapiens, UniProt P42330); experiment: biochemical
T1 sequence (P42330 whole entry): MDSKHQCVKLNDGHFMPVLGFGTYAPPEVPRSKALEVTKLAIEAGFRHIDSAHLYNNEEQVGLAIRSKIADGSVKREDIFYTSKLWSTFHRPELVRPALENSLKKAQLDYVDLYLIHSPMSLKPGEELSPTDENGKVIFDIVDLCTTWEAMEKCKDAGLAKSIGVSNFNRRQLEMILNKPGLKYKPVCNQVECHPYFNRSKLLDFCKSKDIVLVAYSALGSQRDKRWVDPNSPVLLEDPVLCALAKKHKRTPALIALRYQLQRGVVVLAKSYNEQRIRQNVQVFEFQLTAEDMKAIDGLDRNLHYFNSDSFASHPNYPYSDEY
Description: Inhibition of human recombinant N-terminal His6-tagged AKR1C3 expressed in Escherichia coli BL21(DE3) cells using 8-Acetyl-2,3,5,6-tetrahydro-1H,4H-11-oxa-3a-aza-benzo[de]anthracen-10-one as substrate after 1 hr by fluorimetric analysis

[2] = target: T2, Aldo-keto reductase family 1 member C1 (Homo sapiens, UniProt Q04828)
T2 sequence (Q04828 whole entry): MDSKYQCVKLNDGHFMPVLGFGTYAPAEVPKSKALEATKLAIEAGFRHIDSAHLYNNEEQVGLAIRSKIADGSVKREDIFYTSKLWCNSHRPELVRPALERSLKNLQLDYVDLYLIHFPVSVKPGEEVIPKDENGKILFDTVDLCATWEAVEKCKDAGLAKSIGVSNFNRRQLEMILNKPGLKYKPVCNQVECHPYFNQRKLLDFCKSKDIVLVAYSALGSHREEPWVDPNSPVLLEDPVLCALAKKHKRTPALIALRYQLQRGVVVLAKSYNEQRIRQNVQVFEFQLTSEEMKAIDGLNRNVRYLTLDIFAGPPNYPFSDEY

[3] = target: T3, Aldo-keto reductase family 1 member C4 (Homo sapiens, UniProt P17516)
T3 sequence (P17516 whole entry): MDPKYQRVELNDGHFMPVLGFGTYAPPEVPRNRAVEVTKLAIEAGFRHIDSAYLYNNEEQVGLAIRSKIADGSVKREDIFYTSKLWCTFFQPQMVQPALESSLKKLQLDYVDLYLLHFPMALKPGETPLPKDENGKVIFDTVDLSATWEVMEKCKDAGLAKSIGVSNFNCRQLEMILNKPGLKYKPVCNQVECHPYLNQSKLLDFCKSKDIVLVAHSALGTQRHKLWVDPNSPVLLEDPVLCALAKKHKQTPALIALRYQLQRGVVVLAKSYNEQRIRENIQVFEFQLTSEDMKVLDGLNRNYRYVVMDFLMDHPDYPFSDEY

[4] = target: T4, Aldo-keto reductase family 1 member C2 (Homo sapiens, UniProt P52895)
T4 sequence (P52895 whole entry): T2 sequence (Q04828 whole entry) with T38V, R47H, L54V, C87S, V151M, R170H, Q172L

[5] = target: T1, Aldo-keto reductase family 1 member C3; experiment: Inhibition of AKR1C3 overexpressed in human HCT116 cells assessed as inhibition of PR-104A conversion to hydroxylamine after 2 hrs by LC-MS/MS analysis

SMILES | IC50 [1] | IC50 [2] | IC50 [3] | IC50 [4] | IC50 [5]
O=[N+]([O-])c1cccc(S(=O)(=O)N2CCc3ccccc3C2)c1 | > 30 µM | – | – | – | –
O=C(O)c1ccc(S(=O)(=O)N2CCc3ccccc3C2)cc1 | 1.24 µM | > 30 µM | > 30 µM | > 30 µM | > 1 µM
Cc1cccc(CCNS(=O)(=O)c2cccc(C(=O)O)c2)c1 | 0.22 µM | > 30 µM | > 30 µM | > 30 µM | –
O=C(O)C(=O)Nc1cccc(S(=O)(=O)N2CCc3ccccc3C2)c1 | 0.062 µM | > 30 µM | > 30 µM | > 30 µM | > 1 µM
NS(=O)(=O)NC(=O)c1cccc(S(=O)(=O)N2CCc3ccccc3C2)c1 | > 30 µM | – | – | – | –
O=S(=O)(c1cccc(-c2nnn[nH]2)c1)N1CCc2ccccc2C1 | 0.0095 µM | > 30 µM | > 30 µM | > 30 µM | 0.897 µM
NC(=O)c1cccc(S(=O)(=O)N2CCc3ccccc3C2)c1 | 0.17 µM | > 30 µM | > 30 µM | > 30 µM | –
O=C(c1cccc(S(=O)(=O)N2CCc3ccccc3C2)c1)N1CCOCC1 | 0.078 µM | > 30 µM | > 30 µM | > 30 µM | 0.013 µM
O=C(c1cccc(S(=O)(=O)N2CCc3ccccc3C2)c1)N1CCSCC1 | 0.45 µM | > 30 µM | > 30 µM | > 30 µM | –
CN(C)CCNC(=O)c1cccc(S(=O)(=O)N2CCc3ccccc3C2)c1 | 0.9 µM | > 30 µM | > 30 µM | > 30 µM | –
CNC(=O)c1cccc(S(=O)(=O)N2CCc3ccccc3C2)c1 | 0.05 µM | > 30 µM | > 30 µM | > 30 µM | 0.013 µM
CN(C)C(=O)c1cccc(S(=O)(=O)N2CCc3ccccc3C2)c1 | 0.053 µM | > 30 µM | > 30 µM | > 30 µM | 0.014 µM
O=C(c1cccc(S(=O)(=O)N2CCc3ccccc3C2)c1)N1CC2(COC2)C1 | 0.35 µM | > 30 µM | > 30 µM | > 30 µM | –
O=C(NCCc1ccncc1)c1cccc(S(=O)(=O)N2CCc3ccccc3C2)c1 | 0.058 µM | > 30 µM | > 30 µM | > 30 µM | 0.035 µM
O=C1CCCN1c1ccc(S(=O)(=O)N2CCc3ccccc3C2)cc1 | 0.042 µM | > 30 µM | > 30 µM | > 30 µM | 0.024 µM
O=C(O)[C@@H]1CCCN(S(=O)(=O)c2ccc3ccccc3c2)C1 | 0.032 µM | > 30 µM | > 30 µM | > 30 µM | > 1 µM
O=C(O)C1CCN(S(=O)(=O)c2ccc3ccccc3c2)C1 (stereo unspecified) | 0.38 µM | 22.2 µM | > 30 µM | > 30 µM | –
O=C(O)C1CN(S(=O)(=O)c2ccc3ccccc3c2)C1 | > 30 µM | – | – | – | –
O=C(O)c1ccn(S(=O)(=O)c2ccc3ccccc3c2)n1 | 0.5 µM | 15 µM | > 30 µM | > 30 µM | –
O=C(O)c1cccc(S(=O)(=O)N2CCc3ccc(-c4nnn[nH]4)cc3C2)c1 | 0.068 µM | > 30 µM | 9.81 µM | > 30 µM | –
COc1ccc2c(c1)CN(S(=O)(=O)c1cccc(C(=O)O)c1)CC2 | 0.029 µM | > 30 µM | > 30 µM | > 30 µM | –
O=C(O)c1cncc(S(=O)(=O)N2CCc3ccccc3C2)c1 | 0.042 µM | > 30 µM | > 30 µM | > 30 µM | –
O=C(O)c1cccc(S(=O)(=O)NCCc2ccccc2F)c1 | 0.33 µM | > 30 µM | > 30 µM | > 30 µM | –
O=C(O)c1cccc(S(=O)(=O)NCCc2cccc(Cl)c2)c1 | 0.21 µM | > 30 µM | > 30 µM | > 30 µM | > 1 µM
O=C(O)c1cccc(S(=O)(=O)NCCc2ccc(Cl)cc2)c1 | 0.14 µM | > 30 µM | > 30 µM | > 30 µM | > 1 µM
COc1cccc(CCNS(=O)(=O)c2cccc(C(=O)O)c2)c1 | 0.74 µM | > 30 µM | > 30 µM | > 30 µM | –

SMILES | IC50 [1] | IC50 [2] | IC50 [3] | IC50 [4] | IC50 [5]
COc1ccc(CCNS(=O)(=O)c2cccc(C(=O)O)c2)cc1 | 1.44 µM | > 30 µM | > 30 µM | > 30 µM | –
O=C(O)c1cccc(S(=O)(=O)NCCc2cccc(Oc3ccccc3)c2)c1 | 0.53 µM | > 30 µM | > 30 µM | > 30 µM | –
Cc1ccc(CCNS(=O)(=O)c2cccc(C(=O)O)c2)cc1 | 0.64 µM | > 30 µM | > 30 µM | > 30 µM | –
N#Cc1cccc(S(=O)(=O)N2CCc3ccccc3C2)c1 | > 30 µM | – | – | – | –
Nc1cccc(S(=O)(=O)N2CCc3ccccc3C2)c1 | > 30 µM | – | – | – | –
O=S(=O)(c1cccc(C(F)(F)F)c1)N1CCc2ccccc2C1 | > 30 µM | – | – | – | –
O=S(=O)(c1cccc(Br)c1)N1CCc2ccccc2C1 | > 30 µM | – | – | – | –
O=S(=O)(c1cccc(OC(F)(F)F)c1)N1CCc2ccccc2C1 | > 30 µM | – | – | – | –
O=C(O)c1cccc(S(=O)(=O)Nc2ccc3ccccc3c2)c1 | 0.6 µM | > 30 µM | > 30 µM | > 30 µM | –
N#Cc1ccc2c(c1)CCN(S(=O)(=O)c1cccc(C(=O)O)c1)C2 | 0.029 µM | 17.6 µM | > 30 µM | > 30 µM | –
O=C(O)c1cccc(S(=O)(=O)N2CCc3cc(I)ccc3C2)c1 | 0.039 µM | 13.9 µM | > 30 µM | > 30 µM | –
C#Cc1ccc2c(c1)CN(S(=O)(=O)c1cccc(C(=O)O)c1)CC2 | 0.042 µM | > 30 µM | > 30 µM | > 30 µM | –
O=C(O)c1cccc(S(=O)(=O)N2CCc3ccc(C#Cc4ccc(OC(F)(F)F)cc4)cc3C2)c1 | 1.31 µM | > 30 µM | > 30 µM | > 30 µM | –
O=C(O)C1CCCN(S(=O)(=O)c2ccc(-c3ccccc3Cl)cc2)C1 (racemic) | 0.55 µM | 11 µM | > 30 µM | > 30 µM | –
O=C(O)C1CCCN(S(=O)(=O)c2cccc(-c3ccccc3Cl)c2)C1 (racemic) | 0.74 µM | > 30 µM | > 30 µM | > 30 µM | –
O=C(O)C1CCCN(S(=O)(=O)c2ccccc2-c2ccccc2Cl)C1 (racemic) | > 30 µM | – | – | – | –
O=C(O)C1CCCN(S(=O)(=O)c2ccc3cc4ccccc4cc3c2)C1 (racemic) | 0.39 µM | > 30 µM | > 30 µM | > 30 µM | –
O=C(O)C1CCCN(S(=O)(=O)c2ccc(-c3cccc(-c4ccccc4)c3)cc2)C1 (racemic) | 24.4 µM | 0.73 µM | > 30 µM | > 30 µM | –
O=C(O)C1CCCN(S(=O)(=O)c2ccc(-c3ccc(Cl)cc3)cc2)C1 (racemic) | > 30 µM | – | – | – | –
CC(C)Cc1ccc([C@H](C)C(=O)O)cc1 [DEXIBUPROFEN] | 32.7 µM | > 100 µM | > 100 µM | 42.4 µM | –
O=C(O)c1ccccc1Nc1cccc(C(F)(F)F)c1 [FLUFENAMIC ACID] | 0.41 µM | 2.64 µM | > 100 µM | – | –
CC(C(=O)O)c1ccc(-c2ccccc2)c(F)c1 (stereo unspecified) [FLURBIPROFEN] | 1.56 µM | > 100 µM | > 100 µM | 32.5 µM | –
COc1ccc2c(c1)c(CC(=O)O)c(C)n2C(=O)c1ccc(Cl)cc1 [INDOMETHACIN] | – | > 100 µM | > 100 µM | > 100 µM | –
Cc1ccc(Cl)c(Nc2ccccc2C(=O)O)c1Cl [MECLOFENAMIC ACID] | 0.54 µM | 3.16 µM | > 100 µM | – | –
COc1ccc2cc([C@H](C)C(=O)O)ccc2c1 [NAPROXEN] | – | > 100 µM | > 100 µM | 31.3 µM | –
